SMILES strings stand for the structures.

Tested on in one series: not given
Experiment: not given
The following applies: patients treated at currently recommended doses; cited from earlier work.
With `NC(=O)c1ncn([C@@H]2O[C@H](CO)[C@@H](O)[C@H]2O)n1` [Ribavirin], the “patients with significant hemolysis” value is reported as 10-20%.

For the next series, the system named is HCV replicon I389luc-ubi-neo/NS3-3′/ET in ET (Huh-lucubineo-ET) cells; screening for HCV RNA dependent RNA polymerase. As to the kind of experiment: Replicon Assay (luciferase, ET cell line Huh-lucubineo-ET). The conditions noted are these: Hepatitis C virus; inhibition of replication relative to no compound control; test concentration of 10 μM according to the fitted equation; luciferase 48-72 hours. Type of series: cell-based. In short, it runs like this:
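Huh-derived ET cells stably carrying an I389luc-ubi-neo/NS3-3′/ET HCV replicon with a luciferase-ubiquitin-neomycin phosphotransferase fusion and adaptive NS3-5B mutations were cultured in DMEM with 10% fetal calf serum and 250 μg/mL G418. Cells were seeded at 0.5-1.0×10^4 cells/well in 96 well plates and given compound after 24 hrs. Luciferase was read 48-72 hours later with Bright-Glo reagents, and replication inhibition was expressed relative to untreated controls.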
On the technique in general: A replicon is a self-replicating genome or part of one, used to study replication in cells.
A word on the inhibition: it is the share of the control response that was lost under treatment. Low values mean a weak effect, high ones a strong effect. In turn, `O=C(Nc1nc(-c2ccc(F)cc2)cs1)[C@@H]1CCCN1C(=O)OCc1ccccc1` [Compound 5098, 2-[4-(4-Fluoro-phenyl)-thiazol-2-ylcarbamoyl]-pyrrolidine-1-carboxylic acid benzyl ester] returned an inhibition at 10 µM of 97.2%.

Consider `O=C(Nc1nc(-c2ccc(C(=S)NC3CC3)cc2)cs1)[C@@H]1CCCN1C(=O)OCc1ccccc1` [Compound 5308, 2-[4-(4-Cyclopropylthiocarbamoyl-phenyl)-thiazol-2-ylcarbamoyl]-pyrrolidine-1-carboxylic acid benzyl ester], for which 10 µM produced 100% inhibition.

In turn, `O=C(Nc1nc(CCc2ccccc2)cs1)[C@@H]1CCCN1C(=O)OCc1ccccc1` [Compound 5003, 2-(4-Phenethyl-thiazol-2-ylcarbamoyl)-pyrrolidine-1-carboxylic acid benzyl ester] had an inhibition at 10 µM of 99.9%.

The compound `O=C(Nc1ccc(-c2csc(NC(=O)C3CCCN3C(=O)OCc3ccccc3)n2)cc1)C1CC1` (centres unmarked) [Compound 5018, 2-{4-[4-(Cyclopropanecarbonyl-amino)-phenyl]-thiazol-2-ylcarbamoyl}-pyrrolidine-1-carboxylic acid benzyl ester] returned an inhibition at 10 µM of 100%.

In turn, `O=C(Nc1nc(-c2ccc(C3CCCCC3)cc2)cs1)[C@@H]1CCCN1C(=O)OCc1ccccc1` [Compound 5024, 2-[4-(4-Cyclohexyl-phenyl)-thiazol-2-ylcarbamoyl]-pyrrolidine-1-carboxylic acid benzyl ester] came in with an inhibition at 10 µM of 11%.

Turning to `COC(=O)c1sc(NC(=O)[C@@H]2CCCN2C(=O)OCc2ccccc2)nc1-c1ccc(C(=O)NC2CC2)cc1` [Compound 5362, 2-[(1-Benzyloxycarbonyl-pyrrolidine-2-carbonyl)-amino]-4-(4-cyclopropylcarbamoyl-phenyl)-thiazole-5-carboxylic acid methyl ester], the inhibition at 10 µM stood at 98.7%.

`COCCCNC(=O)c1ccc(-c2csc(NC(=O)[C@@H]3CCCN3C(=O)OCc3ccccc3)n2)cc1` [Compound 5370, 2-{4-[4-(3-Methoxy-propylcarbamoyl)-phenyl]-thiazol-2-ylcarbamoyl}-pyrrolidine-1-carboxylic acid benzyl ester] had an inhibition at 10 µM of 100%.

On to `CCCc1ccc(-c2csc(NC(=O)[C@@H]3CCCN3C(=O)OCc3ccccc3)n2)cc1` [Compound 5099, 2-[4-(4-Propyl-phenyl)-thiazol-2-ylcarbamoyl]-pyrrolidine-1-carboxylic acid benzyl ester], for which 10 µM produced 35.7% inhibition.

Regarding `O=C(Nc1ccc(-c2csc(NC(=O)[C@@H]3CCC(=O)N3C(=O)OCc3ccccc3)n2)cc1)C1CC1` [Compound 5366, 2-{4-[4-(Cyclopropanecarbonyl-amino)-phenyl]-thiazol-2-ylcarbamoyl}-5-oxo-pyrrolidine-1-carboxylic acid benzyl ester], the inhibition at 10 µM came to 99.3%.

As to `O=C(Nc1nc(-c2ccc(C(=O)N3CCOCC3)cc2)cs1)C1CCCN1C(=O)OCc1ccccc1` (centres unmarked) [Compound 5364, 2-{4-[4-(Morpholine-4-carbonyl)-phenyl]-thiazol-2-ylcarbamoyl}-pyrrolidine-1-carboxylic acid benzyl ester], the inhibition at 10 µM was 4.49%.

Compound `O=C(Nc1nc(-c2ccc(C(=O)N3CCN(CCO)CC3)cc2)cs1)[C@@H]1CCCN1C(=O)OCc1ccccc1` [Compound 5377, 2-(4-{4-[4-(2-Hydroxy-ethyl)-piperazine-1-carbonyl]-phenyl}-thiazol-2-ylcarbamoyl)-pyrrolidine-1-carboxylic acid benzyl ester] showed an inhibition at 10 µM of 5.71%.

Regarding `CC(=O)c1ccc(Cc2cnc(NC(=O)[C@@H]3CCCN3C(=O)OCc3ccccc3)s2)cc1` [Compound 5053, 2-[5-(4-Acetyl-benzyl)-thiazol-2-ylcarbamoyl]-pyrrolidine-1-carboxylic acid benzyl ester], the inhibition at 10 µM worked out at 4.55%.

Take `O=C(NC1CC1)c1ccc(-c2csc(NC(=O)[C@@H]3CCCN3C(=O)c3ccncc3)n2)cc1` [Compound 5321, 1-(Pyridine-4-carbonyl)-pyrrolidine-2-carboxylic acid [4-(4-cyclopropylcarbamoyl-phenyl)-thiazol-2-yl]-amide]: the inhibition at 10 µM stood at 91.3%.

`O=C(NC1CC1)c1ccc(-c2csc(NC(=O)[C@@H]3CCCN3C(=O)OCc3ccccc3)n2)o1` [Compound 5351, 2-[4-(5-Cyclopropylcarbamoyl-furan-2-yl)-thiazol-2-ylcarbamoyl]-pyrrolidine-1-carboxylic acid benzyl ester] displayed an inhibition at 10 µM of 22.3%.

`O=C(Nc1ccc(-c2csc(NC(=O)C3CCCN3C(=O)OCc3ccccc3)n2)cc1)C1CCCC1` (centres unmarked) [Compound 5006, 2-{4-[4-(Cyclopentanecarbonyl-amino)-phenyl]-thiazol-2-ylcarbamoyl}-pyrrolidine-1-carboxylic acid benzyl ester] registered an inhibition at 10 µM of 99.9%.

Take `CC(C)(C)OC(=O)N1CCC(NC(=O)c2ccc(-c3csc(NC(=O)[C@@H]4CCCN4C(=O)OCc4ccccc4)n3)cc2)CC1` [Compound 5336, 4-(4-{2-[(1-Benzyloxycarbonyl-pyrrolidine-2-carbonyl)-amino]-thiazol-4-yl}-benzoylamino)-piperidine-1-carboxylic acid tert-butyl ester]: at 10 µM the inhibition was 96.3%.

With `O=C(Nc1nc(C2(c3ccccc3)CCCC2)cs1)[C@@H]1CCCN1C(=O)OCc1ccccc1` [Compound 5028, 2-[4-(1-Phenyl-cyclopentyl)-thiazol-2-ylcarbamoyl]-pyrrolidine-1-carboxylic acid benzyl ester], the inhibition at 10 µM was 98.9%.

`O=C(NCc1ccc(-c2csc(NC(=O)[C@@H]3CCCN3C(=O)OCc3ccccc3)n2)cc1)C1CC1` [Compound 5369, 2-(4-{4-[(Cyclopropanecarbonyl-amino)-methyl]-phenyl}-thiazol-2-ylcarbamoyl)-pyrrolidine-1-carboxylic acid benzyl ester] came in with an inhibition at 10 µM of 98.3%.

The compound `O=C(Nc1nc(-c2ccc3c(c2)Cc2ccccc2-3)cs1)[C@@H]1CCCN1C(=O)OCc1ccccc1` [Compound 5058, 2-[4-(9H-Fluoren-2-yl)-thiazol-2-ylcarbamoyl]-pyrrolidine-1-carboxylic acid benzyl ester] displayed an inhibition at 10 µM of 18.6%.

`O=C(Nc1nc(-c2cccc3ccccc23)cs1)[C@@H]1CCCN1C(=O)OCc1ccccc1` [Compound 5055, 2-(4-Naphthalen-1-yl-thiazol-2-ylcarbamoyl)-pyrrolidine-1-carboxylic acid benzyl ester] yielded an inhibition at 10 µM of 99.3%.

Compound `CNc1ccc(-c2csc(NC(=O)C3CCCN3C(=O)OCc3ccccc3)n2)cc1` (centres unmarked) [Compound 5049, 2-[4-(4-Methylamino-phenyl)-thiazol-2-ylcarbamoyl]-pyrrolidine-1-carboxylic acid benzyl ester] displayed an inhibition at 10 µM of 95.6%.

For the compound `O=C(NC1CC1)c1ccc(-c2csc(NC(=O)[C@@H]3CSCN3C(=O)OCc3ccccc3)n2)cc1` [Compound 5327, 4-[4-(4-Cyclopropylcarbamoyl-phenyl)-thiazol-2-ylcarbamoyl]-thiazolidine-3-carboxylic acid benzyl ester], the inhibition at 10 µM turned out to be 100%.

These data come from patent US7595398B2, “N-(5-membered aromatic ring)-amido anti-viral compounds” (SmithKline Beecham Corporation, priority 2005, dated 2009).
